From the Deep4Chem optical property database
Each block holds one molecule with its values, some of them ahead of it.

Assay: solvent given as SMILES

SMILES: COc1ccc(O)c(-c2nc(C)c3n2CCCC3)c1
- fluorescence lifetime (in ClCCl): 1.12 ns

SMILES: C[Si](C)(C)c1ccc(-c2ccc(-c3ccc(-c4ccc(-c5ccc([Si](C)(C)C)s5)cc4)c4nsnc34)cc2)s1
- fluorescence lifetime (in C1CCOC1): 4.4 ns

SMILES: C(#Cc1ccccc1)c1ccccc1
- fluorescence lifetime (in ClC(Cl)Cl): 3.89 ns

SMILES: CCN1C(=CC2=C([O-])C(=Cc3[se]c4ccccc4[n+]3CC)C2=O)[Se]c2ccccc21
- fluorescence lifetime (in CO): 1.17 ns
- fluorescence lifetime (in ClC(Cl)Cl): 4.15 ns

SMILES: F[B-]1(F)Oc2ccc(Br)cc2-c2c3c(c4c([n+]21)CCc1ccccc1-4)CCc1ccccc1-3
- fluorescence lifetime (in ClCCl): 0.41 ns

SMILES: COc1ccc(-c2nc3ccccc3oc2=O)cc1
- fluorescence lifetime (in c1ccccc1): 2.5 ns

SMILES: CCCCN1/C(=C\c2c(-c3ccc(N(C)C)cc3)c(=O)c2=O)C=Cc2ccccc21
- fluorescence lifetime (in C1CCCCC1): 1.06 ns
- fluorescence lifetime (in Cc1ccccc1): 2.99 ns
- fluorescence lifetime (in ClCCl): 0.6 ns

SMILES: Nc1ccc2c(c1)C(=O)c1ccccc1-2
- fluorescence lifetime (in C1CCCCC1): 4 ns
- fluorescence lifetime (in c1ccccc1): 0.84 ns

SMILES: CCCCn1c(-c2ccc(-c3nnc(-c4ccccc4)o3)cc2)nc2c3ccccc3c3ccccc3c21
- fluorescence lifetime (in ClCCl): 1.84 ns

SMILES: COc1cc(OC)c2cc(-c3cccc(-c4cc5c(OC)cc(OC)cc5oc4=O)c3)c(=O)oc2c1
- fluorescence lifetime (in ClC(Cl)Cl): 2.6 ns

SMILES: CC(C)[Si]1(C(C)C)c2cc(N(C)C)ccc2-c2ccc(C(F)(F)F)cc21
- fluorescence lifetime (in C1CCCCC1): 3.3 ns
- fluorescence lifetime (in ClCCl): 2.5 ns

SMILES: CC1=C(c2cccs2)C(C)=[N+]2C1=C(c1ccccc1)c1c(C)c(-c3cccs3)c(C)n1[B-]2(F)F
- fluorescence lifetime (in Cc1ccccc1): 3.4 ns

SMILES: Cc1cc(=O)[nH]c(=O)[nH]1
- fluorescence lifetime (in CC#N): 0.0001 ns

SMILES: C(=C\c1cc2ccccc2c2ccccc12)/c1cc2ccccc2c2ccccc12
- fluorescence lifetime (in C1CCOC1): 1.72 ns

SMILES: CCCCCCCCN1C(=O)c2ccc3c4c(-c5ccc6c7ccccc7n(-c7ccccc7)c6c5)cc5c6c(cc(-c7ccc8c9ccccc9n(-c9ccccc9)c8c7)c(c7ccc(c2c37)C1=O)c64)C(=O)N(CCCCCCCC)C5=O
- fluorescence lifetime (in ClC(Cl)Cl): 13.2 ns

SMILES: CCCCCCC(CCCCCC)n1c(=O)c2c3ccc4cccc5c6cccc7ccc(c2c1=O)c(c76)c3c45
- fluorescence lifetime (in C1CCCCC1): 10.5 ns
- fluorescence lifetime (in CC#N): 7.5 ns
- fluorescence lifetime (in CC(C)=O): 7.8 ns
- fluorescence lifetime (in CCCCCC): 9.5 ns
- fluorescence lifetime (in CCO): 6.5 ns
- fluorescence lifetime (in CCOCC): 9.6 ns
- fluorescence lifetime (in CS(C)=O): 7.7 ns
- fluorescence lifetime (in Cc1ccccc1): 9.2 ns
- fluorescence lifetime (in ClC(Cl)(Cl)Cl): 8.7 ns
- fluorescence lifetime (in ClC(Cl)Cl): 6.7 ns

SMILES: Cc1cc(-c2ccc(-n3c4ccccc4c4ccccc43)cc2)nc(-c2ccc(-n3c4ccccc4c4ccccc43)cc2)n1
- fluorescence lifetime (in C1CCOC1): 4.26 ns
- fluorescence lifetime (in CN(C)C=O): 7.57 ns
- fluorescence lifetime (in Cc1ccccc1): 2.44 ns
- fluorescence lifetime (in ClC(Cl)Cl): 4.11 ns

SMILES: CCc1c(C)[nH]c(C2=[N+]3C(=Cc4c(C)cc(C)n4[B-]3(F)F)c3ccccc32)c1C
- fluorescence lifetime (in C1CCOC1): 4.41 ns
- fluorescence lifetime (in CC#N): 5.55 ns
- fluorescence lifetime (in CCCCCC): 7.03 ns
- fluorescence lifetime (in CO): 5.6 ns
- fluorescence lifetime (in Cc1ccccc1): 5.9 ns
- fluorescence lifetime (in ClCCl): 4.93 ns

SMILES: Cc1ccc(/C2=C3N=C(C(c4ccccc4)=C/3c3ccccc3)/C(c3ccc(C)cc3)=c3\[nH]/c(c(-c4ccccc4)c3-c3ccccc3)=C(/c3ccc(C)cc3)C3=N/C(=C(/c4ccc(C)cc4)c4[nH]c2c(-c2ccccc2)c4-c2ccccc2)C(c2ccccc2)=C3c2ccccc2)cc1
- fluorescence lifetime (in ClCCl): 0.472 ns

SMILES: COc1ccccc1C1=C2C(C)=CC(C)=[N+]2[B-](F)(F)n2c(C)cc(C)c21
- fluorescence lifetime (in C1CCOC1): 6.42 ns
- fluorescence lifetime (in CCCCCC): 5.78 ns

SMILES: COc1nc(Nc2ccc3c4c(cccc24)C(=O)c2ccccc2-3)nc(OC)n1
- fluorescence lifetime (in CC#N): 9.2 ns
- fluorescence lifetime (in CC(C)=O): 8.5 ns
- fluorescence lifetime (in CC(C)O): 7.7 ns
- fluorescence lifetime (in CCCCOCCCC): 3.7 ns
- fluorescence lifetime (in CCOC(C)=O): 7.3 ns
- fluorescence lifetime (in CCOCC): 4.9 ns
- fluorescence lifetime (in CO): 7.4 ns
- fluorescence lifetime (in Cc1ccccc1): 5.6 ns
- fluorescence lifetime (in Clc1ccccc1): 7.4 ns
- fluorescence lifetime (in N#Cc1ccccc1): 7 ns
- fluorescence lifetime (in O=C1CCCCC1): 7.4 ns

Now from value to molecule:

- fluorescence lifetime (in CCO): 1.49 ns
SMILES: Cc1cc(-c2nnc(-c3c(C(C)C)cc(C(C)C)cc3C(C)C)o2)ccc1-n1c2ccccc2c2ccccc21

- fluorescence lifetime (in C1CCCCC1): 2 ns
SMILES: CN(C)c1ccc2nc(-c3ccc(/C=N/Nc4ccccc4)cc3)sc2c1

- fluorescence lifetime (in ClCCl): 1.77 ns
SMILES: Fc1ccc(-c2ccc(-c3cc(-c4ccccn4)nc(-c4ccccn4)c3)cc2)c(F)c1

- fluorescence lifetime (in CCCCCC): 50.6 ns
- fluorescence lifetime (in CO): 149 ns
- fluorescence lifetime (in ClCCl): 77.8 ns
SMILES: CC(C)c1ccc2ccc3cccc4ccc1c2c34

- fluorescence lifetime (in O): 15.1 ns
SMILES: Cc1ccc2c(c1)c(=O)c1ccccc1n2CCCCCC(=O)O

- fluorescence lifetime (in CC#N): 166 ns
SMILES: COC(=O)[C@]12N=N[C@](C(=O)OC)(C3C4C5C4C5C31)C1C3C4C3C4C12 (some centres undefined)

- fluorescence lifetime (in ClCCl): 2.5 ns
SMILES: COc1ccc2cc(C#N)c(=N)oc2c1

- fluorescence lifetime (in C1CCCCC1): 3.5 ns
SMILES: CCCCc1cc2cccc[n+]2[b-]2ccc(-c3cc[b-]4c(c3)c(CCCC)cc3cccc[n+]43)cc21

- fluorescence lifetime (in C1CCOC1): 2.19 ns
- fluorescence lifetime (in C1COCCO1): 2.06 ns
- fluorescence lifetime (in CC#N): 2.21 ns
- fluorescence lifetime (in CC(C)O): 1.42 ns
- fluorescence lifetime (in CCO): 1.31 ns
- fluorescence lifetime (in CCOC(C)=O): 2.37 ns
- fluorescence lifetime (in CN(C)C=O): 2.51 ns
- fluorescence lifetime (in CO): 1.4 ns
- fluorescence lifetime (in CS(C)=O): 2.43 ns
- fluorescence lifetime (in O): 2.94 ns
SMILES: NS(=O)(=O)c1ccc(N2N=C(c3ccc(O)cc3)CC2c2ccc([N+](=O)[O-])cc2)cc1 (centres undefined)
